Paper PMC10455244, “Alpha-Mangostin: A Potent Inhibitor of TRPV3 and Pro-Inflammatory Cytokine Secretion in Keratinocytes” (International Journal of Molecular Sciences, 2023)

How the values were obtained:
[1] = test system: HEK 293T cells expressing the WT TRPV3; experiment: in vitro; assay type: cell-based, human; details: 24 h
TRPV3 [2] = biological target: T1, TRPV3 (Homo sapiens, UniProt Q8NET8); experiment: Fura-2 calcium imaging, carvacrol-induced Ca2+ increase in NHEK; assay type: cell-based; design: host or cells: NHEK; details: 300 µM carvacrol, keratinocytes (NHEK), control 0.029 ± 0.003
T1 sequence (Q8NET8 1-790): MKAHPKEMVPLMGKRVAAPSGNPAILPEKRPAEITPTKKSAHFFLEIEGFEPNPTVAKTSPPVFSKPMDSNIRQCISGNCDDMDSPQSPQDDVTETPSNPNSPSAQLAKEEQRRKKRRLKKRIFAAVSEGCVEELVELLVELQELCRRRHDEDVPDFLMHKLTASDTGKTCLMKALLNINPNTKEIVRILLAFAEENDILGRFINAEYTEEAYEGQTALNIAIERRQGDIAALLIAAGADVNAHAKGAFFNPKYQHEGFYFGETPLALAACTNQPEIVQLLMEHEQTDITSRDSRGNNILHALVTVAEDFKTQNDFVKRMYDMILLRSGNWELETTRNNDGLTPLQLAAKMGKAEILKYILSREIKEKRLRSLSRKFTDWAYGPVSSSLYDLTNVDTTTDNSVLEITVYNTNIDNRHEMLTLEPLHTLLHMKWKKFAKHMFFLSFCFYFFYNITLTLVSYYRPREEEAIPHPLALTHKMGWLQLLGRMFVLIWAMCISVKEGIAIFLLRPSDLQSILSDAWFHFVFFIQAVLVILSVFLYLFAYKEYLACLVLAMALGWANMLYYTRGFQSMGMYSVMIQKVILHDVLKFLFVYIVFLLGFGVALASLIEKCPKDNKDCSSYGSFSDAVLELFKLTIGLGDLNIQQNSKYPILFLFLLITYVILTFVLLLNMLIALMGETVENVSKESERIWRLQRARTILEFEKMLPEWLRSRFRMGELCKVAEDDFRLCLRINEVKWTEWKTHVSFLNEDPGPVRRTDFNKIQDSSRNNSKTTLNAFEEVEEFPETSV
Experimental: (§1) Since the TRPV3-mediated calcium influx is reported to contribute to proper skin function, we investigated whether alpha-mangostin inhibits the intracellular calcium increase induced by carvacrol in hTRPV3-overexpressing HEK 293T cells and keratinocytes. […] In hTRPV3-overexpressing HEK 293T cells, ∆(F340/F380) decreased by approximately 25% and 70% upon exposure to 0.3 µM and 3 µM alpha-mangostin, respectively (Figure 3A, 0.424 ± 0.032 vs. 0.316 ± 0.030 and 0.144 ± 0.006, respectively).
Figure 3 Alpha-mangostin (α-MG) inhibited TRPV3-mediated intracellular calcium increase. Cells were perfused with solutions containing 0.3 µM, 3 µM alpha-mangostin or 10 µM 74a before the addition of 300 µM carvacrol (red, green, and blue lines, respectively). […]
Fura-2 AM (Thermo Fisher Scientific) was utilized as a fluorescent indicator to measure calcium signal, as described previously. […] To measure the cytosolic Ca^2+ level, a sequential excitation of Fura-2 is performed at 340 nm and 380 nm; then, the emission signals resulting from each excitation wavelength are measured and the ratio of these signals is calculated. […] Samples were excited using a wavelength of 380 nm for 20 ms, followed by 340 nm for 100 ms, and fluorescence at 510 nm was recorded. Recorded data were then analyzed using NIS-Element AR Version 5.00.00 (Nikon Instruments, Melville, NY, USA). […]

TRPV3 [3] = biological target: T1, TRPV3; experiment: Fura-2 calcium imaging, carvacrol-induced Ca2+ increase in hTRPV3-overexpressing HEK 293T cells; assay type: cell-based; design: expressed in transfected cells; details: 300 µM carvacrol; for ∆(F340/F380): control 0.424 ± 0.032
Experimental: as §1
Figure 3 Alpha-mangostin (α-MG) inhibited TRPV3-mediated intracellular calcium increase. Cells were perfused with solutions containing 0.3 µM, 3 µM alpha-mangostin or 10 µM 74a before the addition of 300 µM carvacrol (red, green, and blue lines, respectively). Cells only perfused with normal Tyrode (NT) solution in the presence (black line) or absence (purple line) of 300 µM carvacrol were employed as the control. (A) Alpha-mangostin inhibited TRPV3-mediated intracellular calcium increase in response to carvacrol in TRPV3-overexpressing HEK 293T cells. […] The bar graph on the bottom summarizes the change in the intracellular calcium rise inhibited by alpha-mangostin. (B) Alpha-mangostin inhibited TRPV3-mediated intracellular calcium increase in response to carvacrol in normal human epidermal keratinocytes (NHEK). […] The bar graph on the bottom summarizes the change in the intracellular calcium rise inhibited by alpha-mangostin. Data are presented as means ± SEM. ** p < 0.01, *** p < 0.001, **** p < 0.0001.
Fura-2 AM (Thermo Fisher Scientific) was utilized as a fluorescent indicator to measure calcium signal, as described previously. Fura-2 acetoxymethyl ester (Fura-2 AM) is a widely used fluorescent calcium indicator. After crossing the cell membrane and entering the cytosol, Fura-2 AM is cleaved into its activated form, Fura-2 [49]. After binding to the cytosolic free Ca^2+, the peak excitation of Fura-2 shifts from 380 nm (Ca^2+-free state) to 340 nm (Ca^2+-bound state), while the peak emission remains unchanged at around 510 nm. To measure the cytosolic Ca^2+ level, a sequential excitation of Fura-2 is performed at 340 nm and 380 nm; then, the emission signals resulting from each excitation wavelength are measured and the ratio of these signals is calculated. […] Samples were excited using a wavelength of 380 nm for 20 ms, followed by 340 nm for 100 ms, and fluorescence at 510 nm was recorded. Recorded data were then analyzed using NIS-Element AR Version 5.00.00 (Nikon Instruments, Melville, NY, USA).
The change in the fluorescence ratio when the cells were excited at 340 nm and 380 nm (ΔF340/380) during the measurements was calculated by subtracting the ratio obtained at the beginning of the experiment from each subsequent ratio obtained at different time points. […]

COc1c(O)cc2oc3cc(O)c(CC=C(C)C)c(O)c3c(=O)c2c1CC=C(C)C [Alpha-mangostin]
Increase of viability of cells expressing the WT channel ([1]; 1 µM alone): not statistically significant
Cell viability (normalized O.D., compared with mock cells) ([1]; human, 1 µM): 82.07% ± 1.34
Change in F340/F380 (TRPV3 [2]; 0.3 µM): 0.019 ± 0.002
Change in F340/F380 (TRPV3 [2]; 3 µM): 0.010 ± 0.002
Decrease of ∆(F340/F380) (TRPV3 [3]; 0.3 µM): approximately 25%
∆(F340/F380) (TRPV3 [3]; 0.3 µM): 0.316 ± 0.030
Decrease of ∆(F340/F380) (TRPV3 [3]; 3 µM): ~70%
∆(F340/F380) (TRPV3 [3]; 3 µM): 0.144 ± 0.006
